Source: US5262433A, “Tetrazoleacetic acid derivatives and method of aldose reductase inhibition therewith” (Wakamoto Pharmaceutical Co., Ltd., priority 1991, dated 1993)

What was measured:
aldose reductase = molecular target: T1, aldose reductase (Rattus norvegicus, UniProt P07943); experiment: Aldose Reductase Inhibition Test; assay type: biochemical, rat (male SD rats, crystalline lenses); conditions: rat lens enzyme; DL-glyceraldehyde 10 mM, pH 6.2, 30° C., 5 minutes
T1 construct: crystalline lenses were immediately removed and stored at -80° C; from tissue; host or cells: crystalline lenses of six-week-old male SD rats
Method: Six-week-old male SD rats were anesthetized with ether and killed. The their crystalline lenses were immediately removed and stored at -80° C. The lenses were homogenized in 3 volumes of 135 mM sodium potassium phosphate buffer (pH 7.0) and centrifuged at 30,000 rpm for 30 minutes. The resulting supernatant was dialyzed overnight against 0.05M sodium chloride solution to obtain an aldose reductase solution. All operations were conducted at 4° C. and the enzyme solution was stored at -80° C.
The activity of aldose reductase was determined according to a partially modified method of J. H. Kinoshita et al. (J. Biol. Chem., 1965, 240, p. 877). More specifically, 0.1 ml of DL-glyceraldehyde (final concentration: 10 mM) was added to 0.9 ml of 100 mM sodium potassium phosphate buffer (pH 6.2) which contained lithium sulfate (final concentrationL 400 mM), reduced nicotinamide adenine dinucleotide phosphate (final concentration: 0.15 mM), the enzyme solution, and the compound to be evaluated (final concentration: 10^-5 M, 10^-6 M, 10^-7 M or 10^-8 M), and then the reaction was conducted at 30° C. for 5 minutes. During the reaction, the change in the absorbance at 340 nm with time was monitored.
The maximum reducing rate of the absorbance (U) during the reaction was determined. By subtracting, from this value, the maximum reducing rate (U0) at 340 nm of the reaction solution before the addition of the substrate (DL-glyceraldehyde), the reaction rate (V=U-U0) was calculated as a true reaction rate in the presence of the compound to be tested.
The same procedure was repeated except for the absence of the compound to be tested. A true reaction rate (V0) in case the enzyme was not inhibited was calculated (V0 =U^1 -U0^1). The aldose reductase inhibitory activity of the test compounds was determined according to the following formula:
Rate of Inhibition (%)=(V0 -V)/V0 ×100
The concentration of inhibitor giving 50% inhibition of enzyme activity (IC50) was estimated from the least-square regression line of the log dose-response curve.

[1] = system: sorbitol accumulation in sciatic nerve; experiment: Inhibitory activity test against sorbitol accumulation in sciatic nerve of streptozotocin diabetic rats; assay type: in vivo, rat (Sprague-Dawley); conditions: for Rate of Inhibition of Sorbitol Accumulation, Sciatic nerve, 10 mg/kg: 10 mg/kg oral once a day for 5 days; for Rate of Inhibition of Sorbitol Accumulation, Sciatic nerve, 100 mg/kg: 100 mg/kg oral once a day for 5 days; for Rate of Inhibition of Sorbitol Accumulation in Sciatic Nerve (10 mg/kg): comparative compounds III (Table 4)
Method: (§1) Groups of 6 to 8-week-old Sprague-Dawley male rats (4 animals per group) were fasted for 18 hours and streptozotocin was injected through the tail vein in a dose of 60 mg/kg, to obtain diabetic rats.
(§2) Immediately after the administration of streptozotocin, each compound to be tested was orally administered to these rats in the form of a suspension at a dose of 5 mg/kg, 10 mg/kg and 100 mg/kg (each was suspended in a 0.5% sodium carboxymethyl cellulose solution) once a day (at 9 a.m.) for 5 days.
(§3) During the test, the rats took diet and drank water freely. Four hours after the final administration of the drug in the 5th day's morning (at 9 a.m.), the rats were sacrificed and then the sciatic nerve and lens were removed to determine the amounts of sorbitol accumulated therein.
(§4) The results are expressed in the percentage obtained when the value obtained on the control to which no drug was administered is defined 100.

[2] = system: sorbitol accumulation in lens; experiment: Inhibitory activity test against sorbitol accumulation in lens of streptozotocin diabetic rats; assay type: in vivo, rat (Sprague-Dawley); conditions: 100 mg/kg oral once a day for 5 days, STZ diabetic rats
Method: as §1, §2, §3, §4

[3] = sciatic nerve, STZ diabetic rats

Row | Molecule | IC50 (aldose reductase) [nM] | sorbitol accumulation rate [1] [%] | Rate of Inhibition of Sorbitol Accumulation, Sciatic nerve, 5 mg/kg ([1]; po, 5 mg/kg, 120 h) [%] | Rate of Inhibition of Sorbitol Accumulation, Sciatic nerve, 10 mg/kg [1, 3] [%] | Rate of Inhibition of Sorbitol Accumulation, Sciatic nerve, 100 mg/kg [1, 3] [%] | Rate of Inhibition of Sorbitol Accumulation, lens, 100 mg/kg [2] [%] | Rate of Inhibition of Sorbitol Accumulation, Sciatic nerve, 5 mg/kg ([1]; sciatic nerve, 5 mg/kg oral once a day for 5 days, STZ diabetic rats) [%] | Rate of Inhibition of Sorbitol Accumulation in Sciatic Nerve (10 mg/kg) ([1]; sciatic nerve) [%]
1 | O=C(Cn1nnnc1-c1ccsc1)OCCO [Example 1, [5-(3-thienyl)tetrazol-1-yl] acetic acid 2-hydroxyethyl ester] | 360 | 73 | 48 | 73 | 102 | 50 | – | –
2 | O=C(Cn1nnnc1-c1ccccc1)OCCO [Example 6, (5-phenyltetrazol-1-yl) acetic acid 2-hydroxyethyl ester] | 3100 | – | 29 | 46 | 103 | 24 | – | –
3 | O=C(Cn1nnnc1-c1ccoc1)OCCO [Example 12, [5-(3-furyl)tetrazol-1-yl] acetic acid 2-hydroxyethyl ester] | 360 | – | 41 | 70 | 107 | 68 | – | –
4 | O=C(Cn1nnnc1-c1ccsc1)OCCCO [Example 15, [5-(3-thienyl)tetrazol-1-yl]acetic acid 3-hydroxypropyl ester] | – | – | 24 | 37 | 110 | 36 | – | –
5 | O=C(Cn1nnnc1-c1ccsc1)OCCCCO [Example 16, [5-(3-thienyl)tetrazol-1-yl]acetic acid 4-hydroxybutyl ester] | 390 | – | -5 | 35 | 103 | -10 | – | –
6 | O=C(Cn1nnnc1-c1ccsc1)OCCCCCO [Example 18, [5-(3-thienyl)tetrazol-1-yl]acetic acid 5-hydroxypentyl ester] | 1300 | – | -27 | 16 | 102 | 7 | – | –
7 | COCCOC(=O)Cn1nnnc1-c1ccsc1 [Example 19, [5-(3-thienyl)tetrazol-1-yl]acetic acid 2-methoxyethyl ester] | 210 | – | 22 | 38 | 103 | 13 | – | –
8 | CC(/C=C1\SC(=S)N(CC(=O)O)C1=O)=C\c1ccccc1 [ONO-2235, (E)-3-carboxymethyl-5-[(2E)-methyl-30 phenylpropenylidene]rhodan, reference compound] | – | – | – | 0 | 40 | – | 0 | –
9 | CCOC(=O)Cn1nnnc1-c1ccsc1 [compound 2, reference compound] | – | 63 | – | – | – | – | – | –
10 | O=C(O)Cn1nnnc1-c1ccsc1 [reference compound] | – | – | – | – | – | – | – | 53
11 | [5-(2-methylthio-3-thienyl)tetrazol-1-yl]acetic acid 2-hydroxyethyl ester [Example 2] | – | – | – | – | – | – | – | 63
12 | [5-(2-thienyl)tetrazol-1-yl] acetic acid 2-hydroxyethyl ester [Example 3] | – | – | – | – | – | – | – | 35
13 | [5-[5-(3-phenylpropyl)-2-thienyl]tetrazol-1-yl]acetic acid 2-hydroxyethyl ester [Example 5] | – | – | – | – | – | – | – | 40
14 | [5-[(3-methylsulfonylamino)-2-thienyl]tetrazol-1-yl] acetic acid 2-hydroxyethyl ester [Example 4] | – | – | – | – | – | – | – | 40
